{
  "source": "paper PMC10394516",
  "about": "“The pharmacokinetic profile of brensocatib and its effect on pharmacodynamic biomarkers including NE, PR3, and CatG in various rodent species” (Frontiers in Pharmacology, 2023)",
  "format_in_all_cases": "in vivo",
  "key": {"NE": {"test_system": "NE", "assay": "Bone marrow NE activity after repeated dosing, C57BL/6 mice", "settings": "7 days", "description": "(§1) Briefly, animals were weighed and randomized into different treatment groups. In total, three different dosing levels of brensocatib were tested in each species and strain; each QD dosing level was equivalent to 1.5-times the matching daily BID dose. For BID dosing, the second daily dose was administered 8-h post the morning dose. C57BL/6 mice were dosed either BID or QD for 7 consecutive days at 0/0, 0.5/0.75, 2/3, and 20/30 mg/kg/day (BID/QD). BALB/c mice were dosed for 7 consecutive days at 0/0, 0.2/0.3, 2/3, and 20/30 mg/kg/day (BID/QD). SD rats were dosed for 9 consecutive days at 0/0, 0.2/0.3, 2/3, and 20/30 mg/kg/day (BID/QD). Wistar rats were dosed for 7 consecutive days at 0/0, 0.2/0.3, 2/3, and 20/30 mg/kg/day (BID/QD).\n(§2) At the completion of the study, animals were sacrificed 16–24 h post their final dose. The hind limb bones (femurs and tibias) were collected at necropsy for bone marrow analysis of NSP activities by kinetic enzymatic assays ([Basso et al., 2022]). See section Quantification of Bone Marrow NSP Activities for details.\n(§3) For the mice, each animal had the femurs and tibias of both hind limbs harvested. For the rat, the femur and tibia from a single hind limb per animal was harvested. Bones were kept on wet ice until processing for bone marrow collection. In brief, bone cutters were used to cut the epiphysis (knobby ends) off the long bones to expose the bone marrow filled cavity. Each bone cavity was then flushed with 5 mL/bone (mouse) or 10 mL/bone (rat) of ice-cold RPMI media through a […] and collected in a 50-mL conical tube. Cells were spun down at 2,500 × g at 4°C for 5 min and the supernatant was aspirated. After which, bone marrow cells were lysed with 1X red blood cell (RBC) lysis buffer (Abcam, ab204733) to eliminate contaminating RBCs and washed with PBS to remove any residual RBC lysis buffer. The resulting white blood cells (WBC) were subsequently lysed with 1% (v/v) Triton X-100 in PBS. Lysates were added to 96-well plates and stored at −80°C until NSP analyses.\n(§4) Bone marrow lysates prepared as described above were diluted and plated onto 96-well assay plates to quantify NSP activities as described previously ([Basso et al., 2022]). Briefly, peptide substrates for NE (N-Methoxysuccinyl-Ala-Ala-Pro-Val-7-amido-4-methylcoumarin; Sigma; St. Louis, MO; Excitation/Emission at 350/450 nm), PR3 ((7-Methoxycoumarin-4-yl)acetyl-lysyl-(picolinoyl)-Tyr-Asp-Ala-Lys-Gly-Asp-N-3-(2-4-dinitrophenyl)-2-3-diaminopropyonyl-NH2); GenScript; Piscataway, NJ; Excitation/Emission at 340/430 nm), and CatG (N-Succinyl-Ala-Ala-Pro-Phe p nitroanilide; Sigma; Absorbance at 405 nm) were added at a final assay concentration of 100 μM, 40 μM, and 200 μM, respectively, and either fluorescence or absorbance was quantified using a Synergy microplate reader (BioTek; Winooski, VT). The specific NSP activity in each sample was calculated as the total activity minus the activity in the presence of a specific NSP inhibitor (if used), including elastase inhibitor (Abcam) for NE, sivelestat (Abcam) for PR3, and cathepsin G inhibitor I (Cayman Chemical; Ann Arbor, MI) for CatG. NSP concentrations were interpolated based on their activities relative to the standard curves created using active human NE protein (Sigma), active human PR3 protein (Sigma), and active human CatG protein (Sigma), respectively. Due to unavailability of commercial mouse and/or rat NE, PR3, and CatG proteins, the corresponding human proteins were used instead since their catalytic ability is considered to be conserved across species. A portion of each cell lysate sample was retained for protein quantification using a Pierce™ BCA Protein Assay Kit (Thermo Fisher). The NSP activities were normalized for the cell lysate protein concentrations.\n(§5) The Pierce™ BCA Protein Assay Kit was used to measure the total protein of the samples after lysis to allow for subsequent normalization. […]"}, "CatG": {"test_system": "CatG", "assay": "Bone marrow CatG activity after repeated dosing, C57BL/6 mice", "settings": "for Reduction of CatG activity vs vehicle / Change From Vehicle Control (%) CatG: 7 days", "description": "as §1, §2, §3, §4, §5"}, "PR3": {"test_system": "PR3", "assay": "PD onset study, bone marrow PR3 activity, C57BL/6 mice", "settings": "for Percent change from vehicle PR3: bone marrow, 5 mg/kg BID oral", "description": "A 14-day PD onset study was performed in female C57BL/6 mice dosed BID. Mice were dosed by oral gavage either with vehicle (0 mg/kg) or 5 mg/kg brensocatib (BID; 10 mg/kg/day) for 1, 4, 7, 10, or 14 consecutive days. Plasma was collected from animals during the first 24 h of dosing at 1, 2, 8, 9, 10, and 24 h post the initial dose. Note the 8- and 24-h plasma samples were prior to the afternoon dose and the second day dose (if applicable), respectively. Plasma was used for PK analysis via LC-MS/MS. On prescribed days, animals were sacrificed 16 h post final dose, and the hind bones (femurs and tibias) were collected at necropsy for bone marrow analysis of NSP activities by kinetic enzymatic assays.\nas §3, §4\nThe Pierce™ BCA Protein Assay Kit was used to measure the total protein of the samples after lysis to allow for subsequent normalization. The manufacturer’s instructions for use were followed when performing this assay on a portion of the sample lysates which were diluted in PBS, the same diluent as used for preparation of the standard. Plates were read on the Biotek Synergy plate reader with Gen5 software."}, "[1]": {"settings": "BID highest dose (20 mg/kg/day)"}, "[2]": {"settings": "oral BID 0.5 mg/kg/day, 16 h post final dose"}, "[3]": {"settings": "oral BID 2 mg/kg/day, 16 h post final dose"}, "[4]": {"settings": "oral BID 20 mg/kg/day, 16 h post final dose"}, "[5]": {"settings": "oral QD 0.75 mg/kg/day, 24 h post final dose"}, "[6]": {"settings": "oral QD 3 mg/kg/day, 24 h post final dose"}, "[7]": {"settings": "oral QD 30 mg/kg/day, 24 h post final dose"}, "[8]": {"settings": "5 mg/kg BID, curve fit with free min and max"}},
  "data": [
    {"smiles": "Cn1c(=O)oc2ccc(-c3ccc(C[C@@H](C#N)NC(=O)[C@@H]4CNCCCO4)cc3)cc21", "note": "[brensocatib]", "values": [
      {"measurement": "Reduction of NE activity vs vehicle", "setting": "NE; [1]", "result": 85, "unit": "%"},
      {"measurement": "Reduction of NE activity vs vehicle", "setting": "NE; QD highest dose (30 mg/kg/day)", "result": 71, "unit": "%"},
      {"measurement": "Change From Vehicle Control (%) NE", "setting": "NE; [2]", "result": "−20% (p = 0.1494)"},
      {"measurement": "Change From Vehicle Control (%) NE", "setting": "NE; [3]", "result": "−71% (p < 0.0001)"},
      {"measurement": "Change From Vehicle Control (%) NE", "setting": "NE; [4]", "result": "−85% (p < 0.0001)"},
      {"measurement": "Change From Vehicle Control (%) NE", "setting": "NE; [5]", "result": "−9% (p = 0.8092)"},
      {"measurement": "Change From Vehicle Control (%) NE", "setting": "NE; [6]", "result": "−55% (p < 0.0001)"},
      {"measurement": "Change From Vehicle Control (%) NE", "setting": "NE; [7]", "result": "−71% (p < 0.0001)"},
      {"measurement": "Reduction of CatG activity vs vehicle", "setting": "CatG; [1]", "result": 94, "unit": "%"},
      {"measurement": "Reduction of CatG activity vs vehicle", "setting": "CatG; QD highest dose (30 mg/kg/day)", "result": 87, "unit": "%"},
      {"measurement": "Combined BID and QD percent reduction, CatG", "setting": "CatG; highest dose level 20/30 (BID/QD) mg/kg/day", "result": 90, "unit": "%"},
      {"measurement": "Change From Vehicle Control (%) CatG", "setting": "CatG; [2]", "result": "−16% (p = 0.1964)"},
      {"measurement": "Change From Vehicle Control (%) CatG", "setting": "CatG; [3]", "result": "−71% (p < 0.0001)"},
      {"measurement": "Change From Vehicle Control (%) CatG", "setting": "CatG; [4]", "result": "−94% (p < 0.0001)"},
      {"measurement": "Change From Vehicle Control (%) CatG", "setting": "CatG; [5]", "result": "−1% (p = 0.9999)"},
      {"measurement": "Change From Vehicle Control (%) CatG", "setting": "CatG; [6]", "result": "−64% (p < 0.0001)"},
      {"measurement": "Change From Vehicle Control (%) CatG", "setting": "CatG; [7]", "result": "−87% (p < 0.0001)"},
      {"measurement": "Onset: Maximum reduction (plateau), PR3", "setting": "PR3; [8]", "result": 76, "unit": "%"},
      {"measurement": "Onset: Time to reach 50% reduction, PR3", "setting": "PR3; [8]", "result": 4.5, "unit": "days"},
      {"measurement": "Onset: Time to reach max reduction, PR3", "setting": "PR3; [8]", "result": 8.0, "unit": "days"},
      {"measurement": "Percent change from vehicle PR3", "setting": "PR3; after 1 day of treatment", "result": "−5% (p = 0.9972)"},
      {"measurement": "Percent change from vehicle PR3", "setting": "PR3; after 4 days of treatment", "result": "−43% (p = 0.0236)"},
      {"measurement": "Percent change from vehicle PR3", "setting": "PR3; after 7 days of treatment", "result": "−85% (p < 0.0001)"},
      {"measurement": "Percent change from vehicle PR3", "setting": "PR3; after 10 days of treatment", "result": "−71% (p < 0.0001)"},
      {"measurement": "Percent change from vehicle PR3", "setting": "PR3; after 14 days of treatment", "result": "−81% (p < 0.0001)"}
    ]}
  ]
}
